Assay results published in patent publication US20250205369A1, “DENDRIMER COMPOSITIONS AND USE IN TREATMENT OF NEUROLOGICAL AND CNS DISORDERS” (THE JOHNS HOPKINS UNIVERSITY, priority 2014, published 2025).

How the values were obtained:
[1] = tested on: microglial cells; assay: GSH depletion, ROS, NO, H2O2 and nitrite in microglial cells; type: cell-based; conditions: highest concentration (5 mM)
[2] = tested on: MeCP2-null mice; assay: NAC and D-NAC therapy in MeCP2-null (RTT) mice: survival, behavior, appearance; type: in vivo; conditions: MeCP2-null pups
Protocol: Detailed materials and methods used in the experiments below, including protocols for making the dendrimers-Cy5 and dendrimers-drug conjugates, have been described by Kannan S et al Sci. Transl. Med., 4:130ra46 (2012) and in U.S. Pat. No. 8,889,101.
RTT mice were the Adrian Bird model available from Jackson Laboratory.
Weight and behavior were also assessed. Cytokines were measured using standard mice primers for the assessment of inflammatory markers (Kannan S et al Sci. Transl. Med., 4:130ra46 (2012)).
Conjugation of dendrimer conjugates. The conjugation of dendrimers to Cy5 was done using previously reported methods (Kannan et al., Science Trans. Med (April 2012). For drug experiments, dendrimers were conjugated to N-acetyl-cysteine and administered at doses ranging from 2-20 mg/kg at differing time points.
The mice were injected with D-drug or PBS every 3-4 days, Statistical analysis. The data was analyzed for the reproducibility using Student's t-test to determine the significance between two groups. A p-value equal to or less than 0.05 was considered significant.
Animals were videotaped prior to treatment every 3-4 days, and mobility, gait, tremors, paw clenching, paw clenching time, paw wringing, and respiration were all scored on a scale of 0-3, where ‘0’ indicates the worst score and ‘3’ is best or normal. […]

[3] = tested on: LPS-induced brain injury in a neonatal rabbit model of cerebral palsy; assay: LPS-induced brain injury in neonatal rabbit model of cerebral palsy; type: in vivo
Protocol: The therapeutic efficacy of GA-PAMAM-S-S-NAC dendrimer conjugate was evaluated after two days of animal treatment with lipopolysaccharide (LPS) to induce white matter injury and hypomyelination in the developing rabbit brain (an animal model of Cerebral Palsy).

[4] = tested on: plasma protein; conditions: free drug; cited from earlier work

CC(=O)N[C@@H](CS)C(=O)O [NAC, N-acetyl cysteine]
Reduction of H2O2 levels [1]: 30-40%
Reduction of nitrite levels [1]: 30-40%
Safety / toxicity from survival ([2]; twice weekly therapy): potential toxicity
Survival (Kaplan-Meier) compared to non-treated animals ([2]; twice weekly, 10 mg/kg (NAC basis) from PND21): worse survival than non-treated Rett mice
Dose eliciting identical responses ([3]; free NAC vs conjugate): 100 mg/kg
Fetal inflammation response and motor deficits compared to saline-treated kits ([3]; rabbit kits): decrease in fetal inflammation response with improvement of motor deficits
Plasma protein binding [4]: very high plasma protein binding
